The source of these data is patent publication EP0617893B1, “Molluscicides” (SHELL INTE[…] […] B.V., priority 1993, dated 1994).

Assay [1] deals with Deroceras reticulatum. Nature of the assay: Oral toxicity bait test (pellets in petri-dish), percentage control. In kind it is in vivo. The settings on record: 72 h; for mortality at 2 % strength: 2 % active material in bait; for mortality at 4 % strength: read-out: % control. How it is done:
The molluscicidal activity of compounds used in the method of the invention was tested using, as a test mollusc, specimens of the adult grey field slug Deroceras reticulatum.
The oral toxicity of the compounds was assessed by presenting slugs with individually prepared experimental baits containing either 4% or 2% active material. These were compared with commercial baits containing 4% methiocarb (Draza) […] 6% metaldehyde (Slugit).
2 test pellets were placed onto a 5 cm filter-paper in the centre of a 9 cm plastic petri-dish. Two adults specimens of the slug Deroceras reticulatum were introduced into each dish and the pellets moistened with a few drops of water to make them attractive to eat. A minimum of the two replicates was used for each compound. Blank baits moistened with an equivalent volume of water were used as controls.
The dishes were then stored in a large glass tank maintained at 12 to 16°C and >95% relative humidity. Assessments of the number of slugs affected were made at intervals up to 3 days after treatment. Slugs were considered to be affected or controlled by the bait if they were incapable of normal body movements and could not right themselves within 2 minutes.
The molluscicidal activity of two compounds specified in European Patent Specification No. 437 784 A1, was tested against slugs, Deroceras reticulatum, using the test method given in Example 1 and bait containing 4% active material in each case. • Comparative A is the compound of Example 2 of EP-A-437 784 • Comparative B is the compound of Example 3 of EP-A-437 784.

The subject of another assay is D. reticulatum. Nature of the assay: Contact test: glass residue test. In kind it is in vivo. The settings on record: Deroceras reticulatum, read-out: % affected D. reticulatum. How it is done:
The contact action of Compounds Nos. 1, 3 and 4 was assessed in this Example, using a glass residue test.
The residual toxicity of compounds on glass was investigated by pipetting aliquots of an acetone/Triton X-100 test solution over the base of a 7 cm diameter glass petri-dish to achieve a concentration of 600 ppm. Four adult slugs (D. reticulatum) were introduced into each dish and slug mortality recorded over a 5 day period. Moistened sugar bran mix was provided as food 24 hours after exposure.

In another assay the test system is slugs. In words: Systemic activity: lettuce root dip, cut leaves fed to slugs. The class given is in vivo. As to conditions: root dip 400 ppm. Here is the method: The action via systemic application of the Compound Nos. 1, 3 and 4 was assessed in this Example.
Test solutions of the compounds were prepared by dissolving technical samples in 1 ml of acetone and making up to 50 ml with tap water. The roots of young 6 cm high lettuce plants were then washed clean with water and immersed in the test solution for a minimum of two days. For each bioassay individual leaves were cut from a lettuce plant and placed on a filter paper in a 9cm diameter petri-dish. 1 ml of water was pipetted onto each filter paper in order to keep the leaves reasonably moist during the assay. Two medium-sized slugs were introduced into each dish and the amount of leaf eaten and % control of slugs recorded over a two day period. The amount of compound applied as root dips was in the range of from 400 to 1000 ppm over a number of tests.

The next assay has as its system Arion hortensis. Nature of the assay: Bait test against a range of slug species. The class given is in vivo. How it is done: (§1) The action of Compound No. 1 was assessed against a wide range of slug species, and against snails of the genus Cepaea, with bait containing 2%, 4% and 6% active ingredient. The action of a 4% Draza (trade name for a sluggicide sold by Bayer AG and containing the carbamate molluscicide methiocarb) bait was also assessed.
(§2) The slug species utilised in the test were Milax budapestensis , a large slug which is a major pest of potatoes Deroceras reticulatum , grey field slug - a major field crop pest Arion hortensis , garden slug.

Assay [2] has as its system Deroceras reticulatum. In words: Bait test against a range of slug species. The class given is in vivo. How it is done:
as §1, §2

A further assay has as its system Milax budapestensis. Nature of the assay: Bait test against a range of slug species. In kind it is in vivo. Here is the method: as §1, §2
Assay [3] deals with snails of the genus Cepaea. Nature of the assay: Bait test against snails. The class given is in vivo. As to conditions: bait containing 2%, 4% and 6% active ingredient. How it is done:
as §1

For assay [4] the following is noted: statement of DE-A-4111389; cited from earlier work.
The mark [5] stands for this setting: assessments up to 3 days after treatment.
The mark [6] stands for this setting: 4 % active material in bait, assessments up to 3 days after treatment.
The mark [7] stands for this setting: bait containing 2%, 4% and 6% active ingredient.

The structures appear in SMILES notation. Read-outs that look alike come from different tables or passages of the source.

In the assay with Deroceras reticulatum [1] (setting [5]), `Cc1cc(CN2CCSC2=C[N+](=O)[O-])on1` [compound 7] yielded a mortality at 2 % strength of 100%.
On to `O=[N+]([O-])C=C1NCCN1Cc1cnc(Cl)c(Cl)c1` [compound 14], for which the mortality at 4 % strength with Deroceras reticulatum [1] (setting [6]) was 20%.
For `O=[N+]([O-])N=C1NCCN1Cc1cnc(Cl)c(Cl)c1` [compound 15], the mortality at 2 % strength with Deroceras reticulatum [1] (setting [5]) stood at 25%.
Consider `O=[N+]([O-])C=C1NCCN1Cc1ccc(C(F)(F)F)cc1` [compound 22], for which the mortality at 2 % strength in the assay on Deroceras reticulatum [1] (setting [5]) came to 50%.
For `O=[N+]([O-])C=C1NCCN1Cc1cccc2ccccc12` [compound 20], the mortality at 2 % strength in the assay on Deroceras reticulatum [1] (setting [5]) amounted to 25%.
In the case of `O=[N+]([O-])C=C1NCCN1Cc1cc(C(F)(F)F)no1` [compound 4], the mortality at 2 % strength in the assay on Deroceras reticulatum [1] (setting [5]) is 100%. Also, the mortality at 600 ppm in the assay with D. reticulatum (24 hours) was determined as 25%; in the assay on D. reticulatum (48 hours), 0%; with D. reticulatum (120 hours), 25%.
For the compound `CNC(=O)Oc1cc(C)c(SC)c(C)c1` [methiocarb, reference compound], in the assay with Deroceras reticulatum [1], the mortality at 4 % strength was found to be 100%.
The compound `O=[N+]([O-])N=C1NCCN1Cc1cc(Cl)no1` [compound 2] showed a mortality at 2 % strength in the assay on Deroceras reticulatum [1] (setting [5]) of 50%.
On to `O=[N+]([O-])C(=C1NCCN1Cc1cc(Cl)no1)[N+](=O)[O-]` [compound 9], for which, in the assay with Deroceras reticulatum [1] (setting [5]), the mortality at 2 % strength turned out to be 50%.
Consider `O=[N+]([O-])C=C1NCCN1Cc1cc(Br)no1` [compound 5], for which the mortality at 2 % strength in the assay with Deroceras reticulatum [1] (setting [5]) was 50%.
`O=[N+]([O-])C=C1SCCN1Cc1cnc(Cl)c(Cl)c1` [compound 16] came in with a mortality at 2 % strength with Deroceras reticulatum [1] (setting [5]) of 50%.
On the same count and under the same terms, the result for `C=C(C)CN1CCCNC1=C[N+](=O)[O-]` [compound 23] reads 25%; that for `O=[N+]([O-])C(CSc1ccc(Cl)cc1)=C1NCCN1Cc1cc(Br)no1` [compound 10], 25%.
Regarding `O=[N+]([O-])C=C1NCCN1Cc1ccc(Cl)nc1` [compound 12], the mortality at 4 % strength with Deroceras reticulatum [1] (setting [6]) stood at 20%.
In the case of `O=[N+]([O-])C=C1NCCN1Cc1cc(Cl)no1` [Compound No. 1], the mortality at 4 % strength in the assay on Deroceras reticulatum [1] (setting [6]) is 100%. Also, the systemic activity entry in the assay with slugs was “Activity was observed”. In addition, the mortality at 600 ppm in the assay on D. reticulatum (24 hours) was 100%; in the assay on D. reticulatum (48 hours), 75%; in the assay on D. reticulatum (120 hours), 100%. For the same compound, the “effectiveness compared with 4% Draza bait” value in the assay with Arion hortensis (4% bait), in the assay on Deroceras reticulatum [2] (4% bait) and with Milax budapestensis (4% bait) was “more effective than the 4% Draza bait” each time. The control of slugs entry in the assay with Arion hortensis (setting [7]), in the assay on Deroceras reticulatum [2] (setting [7]) and in the assay on Milax budapestensis (setting [7]) was “controlled” throughout. Also, in assay [3], the control of snails result was “controlled”.
On to `O=[N+]([O-])N=C1NCCN1Cc1ccc(Cl)nc1` [Compound No. 13, Imidacloprid], for which the mortality at 4 % strength with Deroceras reticulatum [1] (setting [6]) turned out to be 30%. Besides, the molluscicidal effectiveness entry in assay [4] is “only a relatively poorly developed molluscicidal effectiveness”.
`O=[N+]([O-])C=C1SCCN1Cc1cc(Cl)no1` [compound 8] registered a mortality at 2 % strength with Deroceras reticulatum [1] (setting [5]) of 25%.
As to `Cc1cc(CN2CCNC2=N[N+](=O)[O-])on1` [compound 11], the mortality at 2 % strength in the assay with Deroceras reticulatum [1] (setting [5]) came out at 100%.
In turn, `Cc1cc(CN2CCCNC2=C[N+](=O)[O-])on1` [compound 24] came in with a mortality at 2 % strength with Deroceras reticulatum [1] (setting [5]) of 25%.
On the same count and under the same terms, as for `O=[N+]([O-])C=C1NCCN1Cc1ccc(F)c(F)c1F` [compound 18], the figure is 25%.
On to `Cc1cc(CN2CCNC2=C[N+](=O)[O-])on1` [compound 3], for which the mortality at 2 % strength in the assay with Deroceras reticulatum [1] (setting [5]) was 100%. Moreover, the systemic activity result in the assay on slugs was “Activity was observed”. Also, the mortality at 600 ppm was determined as 75% with D. reticulatum (24 hours), 100% in the assay with D. reticulatum (48 hours) and 100% in the assay on D. reticulatum (120 hours).
`O=[N+]([O-])C(CSCc1ccccc1)=C1NCCN1c1ccc(Cl)nc1` [compound 17] came in with a mortality at 2 % strength in the assay with Deroceras reticulatum [1] (setting [5]) of 25%.
`O=[N+]([O-])N=C1NCCN1Cc1cc(Br)no1` [compound 6]: in the assay on Deroceras reticulatum [1] (setting [5]), the mortality at 2 % strength came to 25%.
In the assay with Deroceras reticulatum [1] (setting [5]), `Cc1ccc(CN2CCNC2=C[N+](=O)[O-])cc1[N+](=O)[O-]` [compound 21] came in with a mortality at 2 % strength of 25%.
